The text below walks through data of ChEMBL document CHEMBL4396884, “Structure-Aided Identification and Optimization of Tetrahydro-isoquinolines as Novel PDE4 Inhibitors Leading to Discovery of an Effective Antipsoriasis Agent” (J Med Chem, 2019).

Data set [1] concerns Mus musculus. The data set can be described thus: Antiinflammatory activity in specific pathogen free BALB/c mouse assessed as inhibition of LPS-induced TNFalpha secretion in spleen at 1 mg/kg, po administered as single dose pretreated for 1.5 hrs followed by LPS stimulation and measured after 2 hrs by ELISA. The data set is classed as functional, organism-based. A general note: ELISA stands for enzyme-linked immunosorbent assay.

Data set [2] concerns Mus musculus. Kind of data set: Protection against imiquimod-induced skin inflammation in BALB/c mouse psoriasis model assessed as decrease in skin scaling at 25 mg/kg, po administered once daily for 7 days. The data set is classed as functional, organism-based.
The nature of data set [3]: AUC (0 to t) in Sprague-Dawley rat at 25 mg/kg, po by LC-MS/MS analysis. The following applies: in vivo. Type of data set: ADME, organism-based.
For data set [4], the system named is Mus musculus. The data set can be described thus: Antiinflammatory activity in specific pathogen free BALB/c mouse assessed as inhibition of LPS-induced TNFalpha secretion in serum at 1 mg/kg, po administered as single dose pretreated for 1.5 hrs followed by LPS stimulation and measured after 2 hrs by ELISA. The data set is classed as functional, organism-based.

Data set [5] deals with Mus musculus. Kind of data set: Protection against imiquimod-induced skin inflammation in BALB/c mouse psoriasis model assessed as decrease in lesion thickness at 62.5 mg administered topically as cream formulation once daily for 7 days. Type of data set: functional, organism-based.
In data set [6] the test system is Mus musculus. Kind of data set: Protection against imiquimod-induced skin inflammation in BALB/c mouse psoriasis model assessed as decrease in lesion thickness at 25 mg/kg, po administered once daily for 7 days. The data set is classed as functional, organism-based.
In data set [7] the test system is Mus musculus. The data set can be described thus: Antiinflammatory activity in specific pathogen free BALB/c mouse assessed as inhibition of LPS-induced IL12p40 secretion in spleen at 1 mg/kg, po administered as single dose pretreated for 1.5 hrs followed by LPS stimulation and measured after 2 hrs by ELISA. Type of data set: functional, organism-based.
The test system of data set [8] is Mus musculus. Kind of data set: Antiinflammatory activity in specific pathogen free BALB/c mouse assessed as inhibition of LPS-induced IL6 secretion in spleen at 1 mg/kg, po administered as single dose pretreated for 1.5 hrs followed by LPS stimulation and measured after 2 hrs by ELISA. Type of data set: functional, organism-based.
Data set [9] deals with Mus musculus. The data set can be described thus: Protection against imiquimod-induced skin inflammation in BALB/c mouse psoriasis model assessed as decrease in cumulative psoriasis score at 25 mg/kg, po administered once daily for 7 days. Type of data set: functional, organism-based.
The subject of data set [10] is Mus musculus. Kind of data set: Antiinflammatory activity in specific pathogen free BALB/c mouse assessed as inhibition of LPS-induced IL6 secretion in serum at 1 mg/kg, po administered as single dose pretreated for 1.5 hrs followed by LPS stimulation and measured after 2 hrs by ELISA. Type of data set: functional, organism-based.
Data set [11] in a line: Permeability across basal to apical side in human Caco2 cells assessed as drug recovery measured after 95 mins by LC-MS/MS analysis. The data set is classed as ADME, cell-based. The following applies: Caco-2, read-out: Drug recovery.
Data set [12] concerns Mus musculus. Kind of data set: Protection against imiquimod-induced skin inflammation in BALB/c mouse psoriasis model assessed as decrease in skin erythema at 62.5 mg administered topically as cream formulation once daily for 7 days. Type of data set: functional, organism-based.
Data set [13] in a line: Tmax in Sprague-Dawley rat at 25 mg/kg, po by LC-MS/MS analysis. As to conditions: in vivo. The data set is classed as ADME, organism-based.
Data set [14] is described as follows: Permeability across apical to basal side in human Caco2 cells assessed as drug recovery measured after 95 mins by LC-MS/MS analysis. The following applies: Caco-2, read-out: Drug recovery. Type of data set: ADME, cell-based.
Data set [15] in a line: AUC (0 to infinity) in Sprague-Dawley rat at 25 mg/kg, po by LC-MS/MS analysis. The data set is classed as ADME, organism-based. On the set-up: dose 25 mg/kg, route oral, time infinity. The following applies: in vivo.
A short description of data set [16]: Apparent permeability across apical to basal side in human Caco2 cells measured after 95 mins by LC-MS/MS analysis. The data set is classed as ADME, cell-based. The following applies: Caco-2.
A short description of data set [17]: MRT in Sprague-Dawley rat at 10 mg/kg, iv by LC-MS/MS analysis. The data set is classed as ADME, organism-based. As to conditions: in vivo.
A short description of data set [18]: Oral bioavailability in Sprague-Dawley rat at 25 mg/kg by LC-MS/MS analysis. The following applies: in vivo. Type of data set: ADME, organism-based.
In data set [19] the test system is Mus musculus. The data set can be described thus: Antiinflammatory activity in specific pathogen free BALB/c mouse assessed as inhibition of LPS-induced IL12p40 secretion in serum at 1 mg/kg, po administered as single dose pretreated for 1.5 hrs followed by LPS stimulation and measured after 2 hrs by ELISA. Type of data set: functional, organism-based.
Data set [20] is described as follows: MRT in Sprague-Dawley rat at 25 mg/kg, po by LC-MS/MS analysis. The data set is classed as ADME, organism-based. The following applies: in vivo.
A short description of data set [21]: Cmax in Sprague-Dawley rat at 25 mg/kg, po by LC-MS/MS analysis. Type of data set: ADME, organism-based. On the set-up: dose 25 mg/kg, route oral. The following applies: in vivo.
A short description of data set [22]: AUC (0 to infinity) in Sprague-Dawley rat at 10 mg/kg, iv by LC-MS/MS analysis. The data set is classed as ADME, organism-based. On the set-up: dose 10 mg/kg, route intravenous, time infinity. The following applies: in vivo.
Data set [23] in a line: Clearance in Sprague-Dawley rat at 10 mg/kg, iv by LC-MS/MS analysis. As to conditions: in vivo. The data set is classed as ADME, organism-based.
The nature of data set [24]: Volume of distribution at steady state in Sprague-Dawley rat at 10 mg/kg, iv by LC-MS/MS analysis. The data set is classed as ADME, organism-based. As to conditions: in vivo, read-out: Vdss.
Data set [25] deals with Mus musculus. The data set can be described thus: Protection against imiquimod-induced skin inflammation in BALB/c mouse psoriasis model assessed as decrease in skin scaling at 62.5 mg administered topically as cream formulation once daily for 7 days. Type of data set: functional, organism-based.
Data set [26] is described as follows: Half life in Sprague-Dawley rat at 10 mg/kg, iv by LC-MS/MS analysis. Type of data set: ADME, organism-based. The following applies: in vivo.
Data set [27] in a line: Half life in Sprague-Dawley rat at 25 mg/kg, po by LC-MS/MS analysis. The data set is classed as ADME, organism-based. The following applies: in vivo.
Data set [28] concerns Mus musculus. The data set can be described thus: Protection against imiquimod-induced skin inflammation in BALB/c mouse psoriasis model assessed as decrease in skin erythema at 25 mg/kg, po administered once daily for 7 days. Type of data set: functional, organism-based.
The nature of data set [29]: AUC (0 to t) in Sprague-Dawley rat at 10 mg/kg, iv by LC-MS/MS analysis. As to conditions: in vivo. Type of data set: ADME, organism-based.
Data set [30] in a line: Apparent permeability across basal to apical side in human Caco2 cells measured after 95 mins by LC-MS/MS analysis. The following applies: Caco-2. Type of data set: ADME, cell-based. (Passage across Caco-2 layers is used to estimate intestinal permeability.)
The target in data set [31] is Phosphodiesterase 4 (Homo sapiens) (UniProt P27815+Q08499+Q07343+Q08493). Kind of data set: Inhibition of PDE4 in human PBMC assessed as reduction in LPS-stimulated TNFalpha production at 10 uM preincubated for 1 hr followed by LPS stimulation and measured after 18 to 20 hrs by ELISA relative to control. The data set is classed as protein assay.
Data set [32] addresses 3',5'-cyclic-AMP phosphodiesterase 4D (Homo sapiens) (UniProt Q08499). The data set can be described thus: Inhibition of recombinant human PDE4D catalytic domain at 10 uM using [3H]cAMP as substrate measured after 30 mins by scintillation proximity assay relative to control. A general note: SPA uses beads or plates that emit light when radiolabelled molecules are held near them.

For data set [33] the target is unchanged. Kind of data set: Inhibition of recombinant human PDE4D catalytic domain at 1 uM using [3H]cAMP as substrate measured after 30 mins by scintillation proximity assay relative to control.

Activity calls are given as the source filed them. No cut-off for these calls is given here.

Chain of 3',5'-cyclic-AMP phosphodiesterase 4D (Homo sapiens) (Q08499 whole entry, the tested form may be a part): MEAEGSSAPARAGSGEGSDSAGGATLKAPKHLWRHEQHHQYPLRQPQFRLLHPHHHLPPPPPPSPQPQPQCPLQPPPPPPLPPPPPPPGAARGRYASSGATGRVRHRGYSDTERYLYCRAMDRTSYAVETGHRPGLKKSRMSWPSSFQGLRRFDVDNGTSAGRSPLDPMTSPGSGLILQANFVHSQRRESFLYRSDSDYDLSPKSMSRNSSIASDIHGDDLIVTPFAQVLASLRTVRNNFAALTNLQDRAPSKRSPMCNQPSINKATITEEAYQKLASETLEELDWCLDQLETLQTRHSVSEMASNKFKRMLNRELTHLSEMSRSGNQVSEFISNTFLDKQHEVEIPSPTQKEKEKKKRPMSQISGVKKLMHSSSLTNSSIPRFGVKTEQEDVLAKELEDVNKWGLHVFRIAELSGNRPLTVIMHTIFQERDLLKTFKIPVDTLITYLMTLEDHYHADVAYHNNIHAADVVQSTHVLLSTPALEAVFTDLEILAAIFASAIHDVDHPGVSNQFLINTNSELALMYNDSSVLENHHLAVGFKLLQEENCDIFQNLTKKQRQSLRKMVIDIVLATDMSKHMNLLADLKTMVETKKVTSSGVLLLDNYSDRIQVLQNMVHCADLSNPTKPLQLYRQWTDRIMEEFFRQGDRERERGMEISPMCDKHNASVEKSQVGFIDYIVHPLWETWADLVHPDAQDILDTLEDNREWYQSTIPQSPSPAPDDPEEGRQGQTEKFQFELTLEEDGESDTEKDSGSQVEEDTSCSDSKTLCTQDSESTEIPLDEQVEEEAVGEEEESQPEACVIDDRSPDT

Consider `COc1cc2c(cc1OC)[C@H](CCc1c[nH]c3cc(C)ccc13)N(C=O)CC2`, for which the result in the data set with Mus musculus [1], in the data set with Mus musculus [2], in the data set with Mus musculus [4], in the data set on Mus musculus [5], with Mus musculus [6] and in the data set with Mus musculus [7] was Active. The result in the data set on Mus musculus [8], in the data set on Mus musculus [9], in the data set on Mus musculus [10], with Mus musculus [12], with Mus musculus [19] and in the data set with Mus musculus [25] was Active. Besides, the result in the data set with Mus musculus [28] was Active. Moreover, the AUC(0-t) – broadly, the area under the concentration-time curve up to a stated or last time point – in data set [3] amounted to 8390 ng·h/mL; in data set [29], 6210 ng·h/mL. Also, the recovery at 95 min is 96.8% in [11] and 92.3% in data set [14]. Further, the Tmax (usually the time from dosing to the highest level) in [13] is 79.8 min. The AUC(0-inf) (usually the area under the concentration-time curve extrapolated to infinity) came to 8460 ng·h/mL in [15] and 6280 ng·h/mL in data set [22]. Besides, the Papp A→B (in general, the apparent permeability from the apical to the basolateral side of a cell layer) at 95 min in data set [16] is 18.4 ×10⁻⁶ cm/s. The MRT (in general, the average time that molecules of a dose stay in the body) in data set [17] was determined as 55.2 min; in data set [20], 150 min. For the same compound, the bioavailability (usually the share of a dose that reaches the circulation, judged against a reference dose that is usually intravenous) in data set [18] came to 68.3%. In addition, the Cmax (usually the maximum level reached in the sampled fluid or tissue) in [21] was determined as 2450 ng/mL. For the same compound, the clearance (commonly the volume of plasma or blood freed of the substance per unit of time) in data set [23] is 28.3 mL/min/kg. Besides, in data set [24], the Vd is 1.56 L/kg. Besides, the half-life – broadly, the time in which the quantity being followed falls by half – was 36 min in [26] and 56.4 min in data set [27]. For the same compound, the Papp B→A (usually the apparent permeability from the basolateral to the apical side of a cell layer) at 95 min in [30] stood at 19.9 ×10⁻⁶ cm/s.

Regarding `COc1cc2c(cc1OC)C(CCc1c[nH]c3ccccc13)N(CC1CCOCC1)CC2` (racemic), the figures for the inhibition in data set [31] and in data set [32] were 36.7% and 34.6%, respectively.

Turning to `CCOc1cc([C@@H](CS(C)(=O)=O)N2C(=O)c3cccc(NC(C)=O)c3C2=O)ccc1OC`, the outcome with Mus musculus [2], with Mus musculus [6], with Mus musculus [9] and with Mus musculus [28] was Active. In addition, the results for the recovery at 95 min in data set [11] and in data set [14] were 92.1% and 96.7%, respectively. Also, in data set [16], the Papp A→B at 95 min was found to be 14.9 ×10⁻⁶ cm/s. Moreover, the Papp B→A at 95 min in [30] is 29 ×10⁻⁶ cm/s.

Turning to `COc1cc2c(cc1OC)C(CCc1c[nH]c3ccccc13)N(CC(F)(F)F)CC2` (racemic), in data set [33], the inhibition – broadly, the change of the read-out against control, counted positive when it falls – came to 19.5%.

On to `COC(=O)CN1CCc2cc(OC)c(OC)cc2C1CCc1c[nH]c2ccccc12` (racemic), for which the inhibition in data set [33] was found to be 39.1%.

Turning to `COCCN1CCc2cc(OC)c(OC)cc2C1CCc1c[nH]c2ccccc12` (racemic), the inhibition in data set [33] was determined as 19.2%; in data set [31], 25.7%.

On to `COc1cc2c(cc1OC1CCCC1)[C@H](CCc1c[nH]c3cc(C)ccc13)N(C=O)CC2`, for which the inhibition in [33] is 24%.

As for `COc1cc2c(cc1OC)C(CCc1c[nH]c3ccccc13)N(C(=O)C1CCOCC1)CC2` (racemic), the inhibition in data set [33] is 16.4%.

For the compound `COc1cc2c(cc1OC)C(CCc1c[nH]c3ccccc13)N(C(=O)c1ccncc1)CC2` (racemic), the inhibition in [33] amounted to 30.7%.
